Laboratory results: patent publication US20220289657A1, “COMPOSITION FOR PREVENTING OR TREATING BACTERIAL INFECTIOUS DISEASE COMPRISING 4-GINGEROL DERIVATIVE COMPOUND AS ACTIVE INGREDIENT” (KOREA UNIVERSITY RESEARCH AND BUSINESS FOUNDATION, SEJONG …, priority 2019, published 2022)
Read-outs that look alike come from different tables or passages of the source. Marks after values point to notes of the source that are not given here.

Columns and labels:
RhlR = biological target: T1, RhlR (Pseudomonas aeruginosa, UniProt P54292); assay: cell-based; details: for Relative RhIR activity (%) Agonism / Relative RhIR activity (%) Antagonism: Table 4, concentration not given; for activity at 100 µM: read-out: Relative RhlR activity Agonism, Table 2; for Relative RhIR Activity (%) Agonism 100 / Relative RhIR Activity (%) Agonism 1000: Table 3; for Relative RhIR Activity (%) Agonism 1000: 1000 (μM); for remaining activity at 10 µM: read-out: Relative RhIR Activity (%) Antagonism 10, Table 3
T1 construct: expressed in transfected cells; host or cells: E. coli sdiA variant co-transformed with pJN105R and pSC11 (RhlA::lacZ)
T1 sequence (P54292 whole entry): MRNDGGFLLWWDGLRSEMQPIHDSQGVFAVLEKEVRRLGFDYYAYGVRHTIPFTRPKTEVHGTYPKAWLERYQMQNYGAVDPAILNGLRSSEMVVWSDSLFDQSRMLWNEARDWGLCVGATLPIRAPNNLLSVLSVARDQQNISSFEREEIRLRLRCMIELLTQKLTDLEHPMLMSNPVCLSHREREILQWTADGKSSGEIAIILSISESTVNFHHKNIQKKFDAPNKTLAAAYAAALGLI
Description: Escherichia coli (E. coli) DH5a includes LuxR homolog SdiA detecting endogenous AHL synthesized by other microbial species, particularly, BHL.
For RhlR reporter strain analysis, the present invention used pJN105R (RhlR expression plasmid), anspSC11 (RhlA::lacZ fusion plasmid) and an sdiA variant co-transformed with the two plasmids. 1% of an overnight-cultured reporter strain (OD 595 nm=1.0) supplemented with 10 μg/mL gentamicin and 50 μg/mL ampicillin was cultured in a Luria-Bertani (LB) medium (Difco, Detroit, Mich., USA) with a positive control or a compound (0-1000 μM) and BHL (0-10 μM) (Sigma-Aldrich) at 37° C. for 2 hours. 0.4% arabinose (Sigma-Aldrich) was reacted with the resulting product at 37° C. for 1.5 hours. β-galactosidase activity was evaluated using a Tropix plus kit (Applied Biosystems, CA, USA), and OD 595 nm and luminescence were measured using a VICTOR x5 multimode plate reader (PerkinElmer, Waltham, Mass., USA). Relative RhlR activity was quantified by measuring luminescence at OD 595 nm. In addition, for LasR reporter strain analysis, the present invention used pJN105L (LasR expression plasmid) and pSC11 (lasI::lacZ fusion plasmid), E. coli DH5a co-transformed with the two plasmids, and OdDHL (Sigma-Aldrich).

Pseudomonas aeruginosa [1] = assay: Static biofilm formation assay (crystal violet); assay type: cell-based; details: for Relative biological activity (%) Biofilm formation: Table 4, concentration not given; for activity at 10 µM / activity at 100 µM: Pseudomonas aeruginosa, 24 h, Table 3; for activity at 10 µM / activity at 100 µM / biofilm formation compared with a control (in words): static; for activity at 10 µM: read-out: Relative biological activity (%) Biofilm formation 10; for activity at 100 µM: read-out: Relative biological activity (%) Biofilm formation 100; for biofilm formation compared with a control (in words): 100 μM
Description: (§1) Pseudomonas aeruginosa (P. aeruginosa) (OD 595 nm=1.0) was cultured overnight, and diluted in an AB medium (1:20; 300 mM NaCl, 50 mM MgSO4, 0.2% vitamin-free casamino acids, 10 mM potassium phosphate, 1 mM L-arginine, and 1% glucose, pH 7.5) together with a positive control or compound (0100 μM) in a borosilicate bottle. The resulting mixture was incubated without shaking at 37° C. for 24 hours, and to measure growth inhibition activity. OD 595 nm of the suspended culture was measured using a multimode plate reader. Biofilm cells attached to the bottle were washed twice with phosphate-buffered saline (PBS; 137 mM NaCl, 2.7 mM KCl, 10 mM Na2HPO4, and 2 mM KH2PO4, pH 7.2). Afterward, the remaining biofilm cells were stained with 0.1% crystal violet for 10 minutes, and to remove the unbound crystal violet, washed with deionized water. The crystal violet […] to the biofilm cells was eluted with 100% ethanol, and the OD of the eluted ethanol sample was measured at 545 nm using a multimode plate reader.

Pseudomonas aeruginosa [2] = assay: Bacterial growth under static condition (OD 595 nm of suspended culture); assay type: cell-based; details: for Relative biological activity (%) Bacterial growth: Table 4, concentration not given; for activity at 10 µM / activity at 100 µM: Pseudomonas aeruginosa, 24 h, Table 3; for activity at 10 µM: read-out: Relative biological activity (%) Bacterial growth 10; for activity at 100 µM: read-out: Relative biological activity (%) Bacterial growth 100
Description: as §1

P. aeruginosa = assay: Rhamnolipid production assay; assay type: cell-based, Pseudomonas aeruginosa; details: for Relative biological activity (%) Rhamnolipid production: Table 4, concentration not given; for activity at 10 µM / activity at 100 µM: Pseudomonas aeruginosa, 24 h, Table 3; for activity at 10 µM: read-out: Relative biological activity (%) Rhamnolipid production 10; for activity at 100 µM: read-out: Relative biological activity (%) Rhamnolipid production 100
Description: P. aeruginosa (OD 595 nm=1.0) cultured overnight was inoculated in an AB medium (1:100) with a positive control or compound (0100 μM), and incubated using a shaking culture for 24 hours at 37° C. The cell culture was centrifuged for 5 minutes at 4° C. and 12,000 g. Rhamnolipids were extracted twice by mixing 200 μL of a supernatant and 400 μL of 100% diethyl ether (JUNSEI, Tokyo, Japan). The supernatant was transferred to a new tube and evaporated. A dried sample was eluted with 20 μL of deionized water, and reacted with 180 μL of an Orcinal solution (0.19% Orcinal (Sigma-Aldrich) in 53% H2SO4). The reaction mixture was heated for 30 minutes at 80° C., and cooled for 15 minutes at room temperature. The amount of rhamnolipids was measured at OD 421 nm, and normalized in the cell culture solution at OD 595 nm using a multimode plate reader.

[3] = Table 2, footnotes not given, 100 μM per Table 3, lower = stronger antagonism
[4] = footnotes not given, matches the 100 column of Table 3
[5] = read-out: Relative RhlR activity Antagonism, Table 2, footnotes not given, 100 μM per Table 3, lower = stronger antagonism
[6] = read-out: Relative RhIR Activity (%) Antagonism 100, Table 3, 100 (μM)

Row | Structure (SMILES) | Relative RhlR activity Antagonism (RhlR; [3]) | Relative RhIR activity (%) Agonism (RhlR) | Relative RhIR activity (%) Antagonism (RhlR) | activity at 100 µM (RhlR; [4]) | remaining activity at 100 µM (RhlR; [5]) | Relative biological activity (%) Biofilm formation (Pseudomonas aeruginosa [1]) | Relative biological activity (%) Bacterial growth (Pseudomonas aeruginosa [2]) | Relative biological activity (%) Rhamnolipid production (P. aeruginosa) | Relative RhIR Activity (%) Agonism 100 (RhlR; 100 (μM)) | Relative RhIR Activity (%) Agonism 1000 (RhlR) | remaining activity at 10 µM (RhlR) | remaining activity at 100 µM (RhlR; [6]) | activity at 10 µM (Pseudomonas aeruginosa [1]) | activity at 100 µM (Pseudomonas aeruginosa [1]) | activity at 10 µM (Pseudomonas aeruginosa [2]) | activity at 100 µM (Pseudomonas aeruginosa [2]) | activity at 10 µM (P. aeruginosa) | activity at 100 µM (P. aeruginosa) | biofilm formation compared with a control (in words) (Pseudomonas aeruginosa [1]) | other results
1 | CCCC(O)CC(=O)/C=C/c1ccc(O)cc1 (stereo not shown) [Compound 11d, (E)-5-Hydroxy-1-(4-hydroxyphenyl)oct-1-en-3-one] | 51** % | 1** % | 51** % | 1% | 51% | 74* % | 105% | 83% |  |  |  |  |  |  |  |  |  |  |  | 
2 | CCCC(O)CC(=O)/C=C/c1ccc(OC)cc1 (stereo not shown) [Compound 11f, (E)-5-Hydroxy-1-(4-methoxyphenyl)oct-1-en-3-one] | 55** % | 1** % | 55** % | 1% | 55% | 75* % | 102% | 88% |  |  |  |  |  |  |  |  |  |  |  | 
3 | CCCC(O)CC(=O)/C=C/c1ccc(O)c(O)c1 (stereo not shown) [Compound 11k, (E)-1-(3,4-Dihydroxyphenyl)-5-hydroxyoct-1-en-3-one] |  |  |  | 3% | 43% |  |  |  | 3** % | 5** % | 60% | 43% | 84% | 72% | 99% | 104% | 56% | 50% |  | 
4 | CCCC(O)CC(=O)/C=C/c1ccc(F)c(F)c1 (stereo not shown) [Compound 11o, (E)-1-(3,4-Difluorophenyl)-5-hydroxyoct-1-en-3-one] | 20** % |  |  | 2% | 20% |  |  |  | 2** % | 5** % | 60% | 20% | 72% | 53% | 101% | 105% | 63% | 50% | significantly inhibited | Relative RhlR activity Agonism (RhlR; Table 2, footnotes not given, matches the 100 column of Table 3): 2** %
5 | CCCCCC(=O)/C=C/c1ccc(F)c(F)c1 [Compound 13a, (E)-1-(3,4-Difluorophenyl)oct-1-en-3-one] |  |  |  | 4% | 51% |  |  |  | 4** % | 3** % | 53% | 51% | 80% | 61% | 103% | 103% | 64% | 62% | significantly inhibited | 
6 | CCCCCC(=O)C#Cc1ccc(O)c(OC)c1 [Compound 21, 1-(4-Hydroxy-3-methoxyphenyl)oct-1-yn-3-one] | 29** % | 3** % | 29** % | 3% | 29% | 72* % | 102% | 81* % |  |  |  |  |  |  |  |  |  |  |  | 
7 | CCCCC[C@@H](O)C#Cc1ccc(O)c(OC)c1 [Compound 23b, (R)-4-(3-Hydroxyoct-1-yn-1-yl)-2-methoxyphenol] | 27** % | 3** % | 27** % | 3% | 27% | 79* % | 100% | 77* % |  |  |  |  |  |  |  |  |  |  |  | 
8 | CCCCC[C@H](O)C#Cc1ccc(O)c(OC)c1 [Compound 23c, (S)-4-(3-Hydroxyoct-1-yn-1-yl)-2-methoxyphenol] | 34** % | 3** % | 34** % | 3% | 34% | 67* % | 104% | 86% |  |  |  |  |  |  |  |  |  |  |  | 
9 | CCCCC(=O)C#Cc1ccc(F)c(F)c1 [Compound 31, 1-(3,4-Difluorophenyl)hept-1-yn-3-one] |  |  |  | 4% | 16% |  |  |  | 4** % | 6** % | 29% | 16% | 75% | 55% | 100% | 89% | 59% | 49% | significantly inhibited | effect on cell growth (in words) (Pseudomonas aeruginosa [2]; 100 PM [sic] (100 μM)): slightly inhibited
